Consider 27 molecules from patent US11578087B2, “Oxaborole esters and uses thereof” (priority 2016, dated 2023).

The test system of test [1] is T. cruzi amastigote (Td Tomato-modified) in Vero cells. The test is described as follows: In vitro IC50 measurement of T. cruzi amastigote killing using Td Tomato-modified T. cruzi. To be noted: Trypanosoma cruzi, 72 h, fluorescence, read-out: IC50: I Org. amastigote Growth T. cruzi 3 d. Format: cell-based. A digest of the protocol:
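Vero cells infected with Td Tomato-expressing T. cruzi, treated with compound at 5 uM to 5 nM final, incubated 72 h at 37 °C. Fluorescence (Ex 544/Em 612 nm) read at Day 0 and Day 3, Day 0 subtracted; IC50 and IC90 by nonlinear regression.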

Test [2] has as its system IL3000 T. congolense (drug sensitive) strain. The test is described as follows: In vitro Alamar Blue 72 h drug sensitivity assay for T. congolense. To be noted: Trypanosoma congolense, 72 h, bloodstream form, 69 h + 3 h Resazurin, 34° C., read-out: IC50: I Org. Growth T. congolense 3 d. Format: cell-based, Trypanosoma congolense. A digest of the protocol:
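Bloodstream-form trypanosomes in HMI medium with 20% bovine serum were exposed to compounds for 69 h at 34° C, 5% CO2, then resazurin for another 3 h. Fluorescence read at ex 536/em 588 nm; IC50 from 11-point sigmoidal dose-response curves, at least three independent runs.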
A general note: Resazurin is reduced to fluorescent resorufin, in cell work by metabolically active cells.

In general, IC50 refers to the midpoint of a concentration-inhibition curve.

Turning to `Cc1c(C(=O)N[C@H](C(=O)OCc2ccc(C(F)(F)F)nc2)C(C)C)ccc2c1B(O)OC2` [Example 6-168, (6-(Trifluoromethyl)pyridin-3-yl)methyl (1-hydroxy-7-methyl-1,3-dihydrobenzo[c][1,2]oxaborole-6-carbonyl)-L-valinate], the IC50 in test [1] was no more than 20 nM; in test [2], less than 0.5 nM.

`Cc1c(C(=O)N[C@H](C(=O)OCc2cccc(S(C)(=O)=O)c2)C(C)C)ccc2c1B(O)OC2` [Example 6-080, 3-(Methylsulfonyl)benzyl (1-hydroxy-7-methyl-1,3-dihydrobenzo[c][1,2]oxaborole-6-carbonyl)-L-valinate]: the IC50 in test [1] was 21 to 999 nM; in test [2], 0.51 to 9.99 nM.

As to `CCS(=O)(=O)c1ccc(COC(=O)[C@@H](NC(=O)c2ccc3c(c2C)B(O)OC3)C(C)C)cc1` [Example 6-093, 4-(Ethylsulfonyl)benzyl (1-hydroxy-7-methyl-1,3-dihydrobenzo[c][1,2]oxaborole-6-carbonyl)-L-valinate], the half-maximal inhibitory concentration (IC50) fell in the range of 21 to 999 nM in test [1] and 0.51 to 9.99 nM in test [2].

Consider `Cc1c(C(=O)N[C@H](C(=O)OCc2cccc(C#N)c2)C(C)C)ccc2c1B(O)OC2` [Example 6-047, 3-Cyanobenzyl (1-hydroxy-7-methyl-1,3-dihydrobenzo[c][1,2]oxaborole-6-carbonyl)-L-valinate], for which the IC50 in test [1] was no more than 20 nM; in test [2], less than 0.5 nM.

Turning to `Cc1c(C(=O)N[C@H](C(=O)OC[C@H]2CCCO2)C(C)C)ccc2c1B(O)OC2` [Example 6-215, ((R)-tetrahydrofuran-2-yl)methyl (1-hydroxy-7-methyl-1,3-dihydrobenzo[c][1,2]oxaborole-6-carbonyl)-L-valinate], the values for the IC50 in test [1] and in test [2] were no more than 20 nM and less than 0.5 nM, respectively.

As to `Cc1c(C(=O)N(C)[C@H](C(=O)OCc2ccc(F)cc2)C(C)C)ccc2c1B(O)OC2` [Example 6-118, 4-Fluorobenzyl N-(1-hydroxy-7-methyl-1,3-dihydrobenzo[c][1,2]oxaborole-6-carbonyl)-N-methyl-L-valinate], the IC50 in test [1] was no less than 1000 nM; in test [2], 10 to 5000 nM.

As for `Cc1c(C(=O)N[C@H](C(=O)OCC2COC2)C(C)C)ccc2c1B(O)OC2` [Example 6-150, Oxetan-3-ylmethyl (1-hydroxy-7-methyl-1,3-dihydrobenzo[c][1,2]oxaborole-6-carbonyl)-L-valinate], the IC50 in test [1] fell in the range of 21 to 999 nM; in test [2] it was 0.51 to 9.99 nM.

With `Cc1c(C(=O)N[C@H](C(=O)OCc2cccc(N3CCN(C)CC3)c2)C(C)C)ccc2c1B(O)OC2` [Example 6-072, 3-(4-Methylpiperazin-1-yl)benzyl (1-hydroxy-7-methyl-1,3-dihydrobenzo[c][1,2]oxaborole-6-carbonyl)-L-valinate], the IC50 was no more than 20 nM in test [1] and less than 0.5 nM in test [2].

Regarding `Cc1c(C(=O)N[C@H](C(=O)OCC(F)(F)C(F)(F)F)C(C)C)ccc2c1B(O)OC2` [Example 6-153, 2,2,3,3,3-Pentafluoropropyl (1-hydroxy-7-methyl-1,3-dihydrobenzo[c][1,2]oxaborole-6-carbonyl)-L-valinate], the 50% inhibitory concentration (IC50) in test [1] is no more than 20 nM; in test [2], less than 0.5 nM.

As to `CC(C)c1c(C(=O)N[C@H](C(=O)OCc2ccccc2)C(C)C)ccc2c1B(O)OC2` [Example 6-063, Benzyl (1-hydroxy-7-isopropyl-1,3-dihydrobenzo[c][1,2]oxaborole-6-carbonyl)-L-valinate], the IC50 in test [1] is no less than 1000 nM; in test [2] it was 0.51 to 9.99 nM.

Regarding `Cc1c(C(=O)N[C@H](C(=O)OCc2ccc([S+](C)[O-])cc2)C(C)C)ccc2c1B(O)OC2` (stereo partly drawn) [Example 6-090, 4-(Methylsulfinyl)benzyl (1-hydroxy-7-methyl-1,3-dihydrobenzo[c][1,2]oxaborole-6-carbonyl)-L-valinate], the IC50 in test [1] lay within 21 to 999 nM; in test [2], 0.51 to 9.99 nM.

`Cc1c(C(=O)N[C@H](C(=O)OCc2ccc(CN3CCCC3)cc2)C(C)C)ccc2c1B(O)OC2` [Example 6-131, 4-(Pyrrolidin-1-ylmethyl)benzyl (1-hydroxy-7-methyl-1,3-dihydrobenzo[c][1,2]oxaborole-6-carbonyl)-L-valinate]: the 50% inhibitory concentration (IC50) in test [1] was 21 to 999 nM; in test [2] it was less than 0.5 nM.

Regarding `Cc1c(C(=O)NC2(C(=O)OCc3ccc(F)cc3)COC2)ccc2c1B(O)OC2` [Example 6-221, 4-fluorobenzyl 3-(1-hydroxy-7-methyl-1,3-dihydrobenzo[c][1,2]oxaborole-6-carboxamido)oxetane-3-carboxylate], the IC50 lay in the range of 21 to 999 nM in test [1] and 0.51 to 9.99 nM in test [2].

With `Cc1c(C(=O)N[C@H](C(=O)OCc2ccccc2)C(C)C)ccc2c1B(O)OC2` [Example 6-038, Benzyl (1-hydroxy-7-methyl-1,3-dihydrobenzo[c][1,2]oxaborole-6-carbonyl)-L-valinate], the 50% inhibitory concentration (IC50) in test [1] is no more than 20 nM; in test [2], less than 0.5 nM.

On to `Cc1c(C(=O)N[C@H](C(=O)OCc2ncc(F)cn2)C(C)C)ccc2c1B(O)OC2` [Example 6-202, (5-fluoropyrimidin-2-yl)methyl (1-hydroxy-7-methyl-1,3-dihydrobenzo[c][1,2]oxaborole-6-carbonyl)-L-valinate], for which the values for the IC50 in test [1] and in test [2] were no more than 20 nM and less than 0.5 nM, respectively.

For `Cc1c(C(=O)N[C@H](C(=O)OCc2cncc(N3CCN(C)CC3)n2)C(C)C)ccc2c1B(O)OC2` [Example 6-204, (6-(4-methylpiperazin-1-yl)pyrazin-2-yl)methyl (1-hydroxy-7-methyl-1,3-dihydrobenzo[c][1,2]oxaborole-6-carbonyl)-L-valinate], the IC50 is no more than 20 nM in test [1] and less than 0.5 nM in test [2].

For `Cc1c(C(=O)N[C@H](C(=O)OCc2ccc(F)cc2)C2CCCC2)ccc2c1B(O)OC2` [Example 6-060, 4-Fluorobenzyl (S)-2-cyclopentyl-2-(1-hydroxy-7-methyl-1,3-dihydrobenzo[c][1,2]oxaborole-6-carboxamido)acetate], the concentration for half-maximal inhibition (IC50) in test [1] is 21 to 999 nM; in test [2] it was 0.51 to 9.99 nM.

Consider `Cc1c(C(=O)N[C@H](C(=O)OCc2ccc(F)cc2)C2CCC2)ccc2c1B(O)OC2` [Example 6-059, 4-Fluorobenzyl (S)-2-cyclobutyl-2-(1-hydroxy-7-methyl-1,3-dihydrobenzo[c][1,2]oxaborole-6-carboxamido)acetate], for which the values for the IC50 in test [1] and in test [2] were 21 to 999 nM and 0.51 to 9.99 nM, respectively.

On to `Cc1c(C(=O)N[C@H](C(=O)OC[C@@H](O)CO)C(C)C)ccc2c1B(O)OC2` [Example 6-148, (S)-2,3-dihydroxypropyl (1-hydroxy-7-methyl-1,3-dihydrobenzo[c][1,2]oxaborole-6-carbonyl)-L-valinate], for which the IC50 is no less than 1000 nM in test [1] and 10 to 5000 nM in test [2].

As to `Cc1c(C(=O)N[C@H](C(=O)OCc2cccc(N3CCNCC3)c2)C(C)C)ccc2c1B(O)OC2` [Example 6-126, 3-(Piperazin-1-yl)benzyl (1-hydroxy-7-methyl-1,3-dihydrobenzo[c][1,2]oxaborole-6-carbonyl)-L-valinate], the IC50 is no less than 1000 nM in test [1] and 0.51 to 9.99 nM in test [2].

`Cc1c(C(=O)N[C@H](C(=O)OCc2ccc(CN3CCN(C)CC3)cc2)C(C)C)ccc2c1B(O)OC2` [Example 6-111, 4-((4-Methylpiperazin-1-yl)methyl)benzyl (1-hydroxy-7-methyl-1,3-dihydrobenzo[c][1,2]oxaborole-6-carbonyl)-L-valinate]: the half-inhibitory concentration (IC50) was no more than 20 nM in test [1] and 0.51 to 9.99 nM in test [2].

In the case of `Cc1c(C(=O)N[C@H](C(=O)OCc2nccc(C(F)(F)F)n2)C(C)C)ccc2c1B(O)OC2` [Example 6-203, (4-(trifluoromethyl)pyrimidin-2-yl)methyl (1-hydroxy-7-methyl-1,3-dihydrobenzo[c][1,2]oxaborole-6-carbonyl)-L-valinate], the IC50 is no more than 20 nM in test [1] and less than 0.5 nM in test [2].

On to `Cc1c(C(=O)N[C@H](C(=O)OCCc2ccc(F)cc2)C(C)C)ccc2c1B(O)OC2` [Example 6-121, 4-Fluorophenethyl (1-hydroxy-7-methyl-1,3-dihydrobenzo[c][1,2]oxaborole-6-carbonyl)-L-valinate], for which the IC50 in test [1] is no more than 20 nM; in test [2], less than 0.5 nM.

In the case of `Cc1c(C(=O)N[C@H](C(=O)OCCCN2CCOCC2)C(C)C)ccc2c1B(O)OC2` [Example 6-208, 3-morpholinopropyl (1-hydroxy-7-methyl-1,3-dihydrobenzo[c][1,2]oxaborole-6-carbonyl)-L-valinate], the concentration for half-maximal inhibition (IC50) in test [1] lay in the range of 21 to 999 nM; in test [2] it was 0.51 to 9.99 nM.

Regarding `Cc1c(C(=O)N[C@H](C(=O)OCc2ccc(C#N)cc2)C(C)C)ccc2c1B(O)OC2` [Example 6-044, 4-Cyanobenzyl (1-hydroxy-7-methyl-1,3-dihydrobenzo[c][1,2]oxaborole-6-carbonyl)-L-valinate], the values for the half-maximal inhibitory concentration (IC50) in test [1] and in test [2] were no more than 20 nM and less than 0.5 nM, respectively.

Take `COCN(COC)S(=O)(=O)c1ccc(COC(=O)[C@@H](NC(=O)c2ccc3c(c2C)B(O)OC3)C(C)C)cc1` [Example 6-109, 4-(N,N-bis(methoxymethyl)sulfamoyl)benzyl (1-hydroxy-7-methyl-1,3-dihydrobenzo[c][1,2]oxaborole-6-carbonyl)-L-valinate]: the results for the half-maximal inhibitory concentration (IC50) in test [1] and in test [2] were 21 to 999 nM and 0.51 to 9.99 nM, respectively.

In the case of `Cc1c(C(=O)N[C@H](C(=O)OCc2ccc(OC(F)(F)F)cc2)C(C)C)ccc2c1B(O)OC2` [Example 6-054, 4-Trifluoromethoxybenzyl (1-hydroxy-7-methyl-1,3-dihydrobenzo[c][1,2]oxaborole-6-carbonyl)-L-valinate], the 50% inhibitory concentration (IC50) in test [1] was no more than 20 nM; in test [2], less than 0.5 nM.
